Laboratory results from patent US12486303B2, “Use of peptide for inhibiting functions and expressions of multiple disease biomarkers” (NIBEC CO., LTD., priority 2018, dated 2025).

What was measured:
[1] = system: high-fat diet C57BL/6 mice; assay: Non-alcoholic hepatitis animal model induced by high-fat diet; format: in vivo; details: 7 weeks, peptide 15 or 30 mg/kg
Source text: In order to determine whether or not the peptide according to the present invention has the effect of treating hepatitis and inhibiting obesity in vivo, a non-alcoholic hepatitis animal model induced by a high-fat diet was used. Male C57BL/6 mice (7 weeks old) were acclimated for 1 week and a total of 20 animals were divided into four experimental groups (n=5 per group), namely, a normal diet group (control), a high-fat diet group (DIO: HFD-induced obesity), a group injected with a low dose of the peptide of SEQ ID NO: 1 (LD SEQ ID NO: 1, 15 mg/kg) and a group injected with a high dose of the peptide of SEQ ID NO: 1 (HD SEQ ID NO: 1, 30 mg/kg), and were reared with the high-fat diet or the normal diet for 7 weeks. The high-fat diet was a 60% high-fat diet (Dyets, Inc). During 7 weeks of rearing, body weight and feed intake were measured twice a week. On the 50th day after 7 weeks of rearing, the animals were sacrificed, and liver and adipose tissues were collected and sized.

NF-κB p100/p52 = assay: Phospho explorer antibody microarray of LPS-treated RAW 264.7 cells: NF-κB p100/p52; format: cell-based; details: 200 μM peptide 1 hour then LPS 1 μg/mL 30 minutes, compared to cells treated with only LPS
Description: (§1) RAW 264.7 cells were starved in 0.5% FBS for 2 hours and treated with 200 μM of the peptide of SEQ ID NO: 1 for 1 hour, and then inflammation was induced at 37° C. for 30 minutes with LPS (1 μg/mL). Cell lysates of untreated cells (NT), cells treated with LPS, and cells treated with SEQ ID NO: 1 and LPS were applied to a Phospho explorer antibody microarray from Full Moon Biosystems. The phospho microarray is capable of recognizing 1318 antibodies related to 30 signaling systems. A standard-size coated glass microscope slide was coated with each antibody. =It was scanned with a GenePix 4100A scanner (Axon Instrument, Foster City, CA, USA). Data were analyzed with Genowiz 4.0™ (Ocimum Biosolutions, Hyderabad, India). The phosphorylation ratio was calculated as follows.
(§2) Formula for calculating phosphorylation ratio in each antibody: Phosphorylation ratio=(phosphorylation value of experimental group/non-phosphorylation value of experimental group)/(phosphorylation value of control group/non-phosphorylation value of control group)

IκBα = assay: Phospho explorer antibody microarray of LPS-treated RAW 264.7 cells: IκBα; format: cell-based; details: 200 μM peptide 1 hour then LPS 1 μg/mL 30 minutes, compared to cells treated with only LPS
Description: as §1, §2

With `C[C@@H](O)[C@H](NC(=O)[C@H](CO)NC(=O)[C@H](CS)NC(=O)[C@H](CCCCN)NC(=O)CN)C(=O)N[C@@H](CCCNC(=N)N)C(=O)NCC(=O)N[C@@H](CCCNC(=N)N)C(=O)N[C@@H](CCCCN)C(=O)N[C@@H](CS)C(=O)N[C@@H](CS)C(=O)N[C@@H](CCCNC(=N)N)C(=O)N[C@@H](CCCNC(=N)N)C(=O)N[C@@H](CCCCN)C(=O)N[C@@H](CCCCN)C(=O)O` [SEQ ID NO: 1] the “Size of subcutaneous fat” value [1] was “decreased”, the “Size of the liver” value [1] was “decreased” and the “Phosphorylation ratio of NF-κB p100/p52” value (NF-κB p100/p52) was 0.451. The “Phosphorylation ratio of IκBα” value (IκBα) was 0.509.
